Experimental data taken from patent US20070098693A1, “Methods for enhancing engraftment of purified hematopoietic stem cells in allogenic recipients” (priority 2003, published 2007).

Legend:
Type in all cases: cell-based, mice
[1] = tested on: B220^+/CD11c^dim/CD11b^− p-preDC; experiment: Cell death of sorted p-preDC after overnight culture (7AAD staining)
Excerpt: (§1) mAbs and Flow cytometry. The following mAbs (all from BD Biosciences Pharmingen, San Diego, Calif., except those labeled with APC-cy-7 from eBioscience, San Diego, Calif.) were used. To sort CD8^+/TCR^− FC: anti-CD8α (53-6.7) PE-labeled, anti-TCR β chain (H57-597) and anti-TCR γδ chain (GL3) FITC-labeled. To sort B220^+/CD11c^dim/CD11b^− p-preDC: anti-CD11b (M1/70) APC-labeled, anti-CD45R/B220 (RA3-6B2) APC-Cy7-labeled, anti-CD11c (HL3) PE-labeled, and anti-TCR β chain (H57-597), anti-TCR γδ chain (GL3), anti-CD14 (rmC5-3), anti-CD19 (1D3), anti-Pan-NK cells (DX5), and anti-NK1.1 (PK136), all FITC-labeled. To sort HSC: anti-TCR β chain (H57-597), anti-TCR γδ chain (GL3), anti-Ly-6G (Gr-1), anti-CD11b, Mac1 (M1/70), anti-CD8α (53-6.7) and anti-CD45R/B220 (RA3-6B2), all FITC-labeled, anti-Ly-6A/E (Sca-1) (E13-161.7) PE-labeled and anti-c-Kit (CD117) (2B8) APC-labeled. To restain the sorted FC population: purified anti-CD16/CD32 (FcγIII/II receptors) (2.4G2), anti-CD11c (HL3), anti-CD4 (RM4-5) and anti-CD19 (1D3) all APC-labeled, anti-CD45R/B220 (RA3-6B2) PerCP-labeled, and anti-Pan-NK cells (DX5), anti-NK1.1 (PK136), anti-CD14 (rmC5-3), and anti-Ly-6G (Gr-1) FITC-labeled. To analyze the activation state: anti-CD80 (B7-1) ([…]), anti-CD86 (B7-2) ([…]), and anti-I-A^b (Aβ^b) (AF6-120.1) FITC-labeled. For PBL typing and multilineage chimerism: anti-H-2 K^b (AF6-88.5) PE or FITC-labeled, anti-H-2K^k (36-7-5) PE or FITC-labeled, anti-TCR β chain (H57-597), anti-NK1.1 (PK136), anti-Ly-6G (Gr-1), anti-CD11b, Mac1 (M1/70) and anti-CD45R/B220 (RA3-6B2) all FITC-labeled. Detection of dead cells after cell culture was determined by using a 7-Amino-actinomycin D (7-AAD) (Molecular Probes, Eugene, Oreg.) followed by FACS analysis.
CpG oligodeoxynucleotides (ODN) stimulation. […]

[2] = tested on: B220^+/CD11c^dim/CD11b^− p-preDC; experiment: Activation marker expression on sorted p-preDC after 18 h culture (FACS)
Excerpt: as §1
(§2) CpG oligodeoxynucleotides (ODN) stimulation. Sorted p-preDC or FC were cultured for 18 hours at 10^5 cells/200 μL in 96 well round-bottom culture plates in culture medium in the presence or absence of Toll-like receptor (TLR)-9 ligand, CPG-ODN 1668 (TCCATGACGTTCCGATGCT) (SEQ ID NO. 1) (GibcoBRL Custom Primers) at 1 μM, TLR-4 ligand, LPS from Escherichia coli (Sigma, MO, USA) at 10 μg/ml, as previously described^30. CpG or LPS-treated or untreated cells were subsequently assayed for: 1) the expression of DC activation/maturation cell surface markers by FACS, 2) their survival rate by 7AAD staining, or 3) morphological appearance by Wright Giemsa staining on cytospins. The supernatant of these cultures were collected for analysis of the production of different cytokines by ELISA.

CD8^+/TCR^− FC [3] = experiment: CpG ODN / LPS stimulation of sorted FC, cytokine production by ELISA / multiplex
Experimental: as §2
Cytokine production by ELISA. Briefly, the cell-free supernatants of 12H, 18H, or 24H cultured cells (FC or p-preDC,) with or without CpG ODN or LPS were collected and kept frozen at −80° C. The amount of cytokine produced was determined by 1) ELISA kits for mouse IFN-α (R&D system) and mouse TNF-α (Biosource International), and 2). Multiplex for MIP 1αCCL3), GM-CSF, MCP-1 (CCL2), RANTES (CCL5), IFN-γ, IL-1β, IL-2, IL-4, IL-5, IL-6, IL-10, IL-12p70, IL-9, and IL13 on 18 hour incubation supernatants from three different experiments performed by Linco Diagnostic Services (St. Charles, Mo.).

CD8^+/TCR^− FC [4] = experiment: Activation marker expression on sorted FC after 18 h culture (FACS)
Excerpt: as §1, §2

CD8^+/TCR^− FC [5] = experiment: Cell death of sorted FC after overnight culture (7AAD staining)
Excerpt: as §1, §2

[6] = FL-derived p-preDC, CpG ODN exposure overnight
[7] = fresh BM p-preDC, overnight exposure to CpG ODN, n=2
[8] = CpG ODN stimulation, 18 hours, multiplex
[9] = FL-derived FC and FL-derived p-preDC (FIG. 4c), CpG-ODN overnight
[10] = after culture with medium or CpG stimulation
[11] = FL-derived FC, CpG ODN exposure overnight
[12] = fresh BM FC, overnight exposure to CpG ODN, n=4
[13] = fresh FC, overnight culture with CpG

CpG ODN: Toll-like receptor (TLR)-9 ligand, CPG-ODN 1668 (TCCATGACGTTCCGATGCT) (SEQ ID NO. 1) (DNA, backbone and methylation of C not given here)
rescue of FL-derived p-preDC from death ([1]; CpG exposure (data not shown)): partially rescued
mortality of p-preDC (dead) ([1]; fresh p-preDC, overnight culture with CpG): 35±0.3%
CD80 expression on FL-derived p-preDC after CpG ODN [2, 6]: 63%
CD86 expression on FL-derived p-preDC after CpG ODN [2, 6]: 87%
Class II expression on FL-derived p-preDC after CpG ODN [2, 6]: 88%
CD80 expression on p-preDC [2, 7]: 12.5±1%
CD86 expression on p-preDC [2, 7]: 85±13%
Class II expression on p-preDC [2, 7]: 39±4%
IL-6 production by FC (CD8^+/TCR^− FC [3]; [8]): moderate amounts
IL-12p70 production by FC (CD8^+/TCR^− FC [3]; [8]): low levels
Mip1-α/CCL3 production by FC (CD8^+/TCR^− FC [3]; [8]): high amounts
RANTES/CCL5 production by FC (CD8^+/TCR^− FC [3]; [8]): moderate amounts
TNF-α production by FC (CD8^+/TCR^− FC [3]; CpG ODN stimulation, 24 hours, ELISA): large amounts
IFN-α secretion of FL-derived cells after CpG-ODN (CD8^+/TCR^− FC [3]; [9]): increased further
IL-12p70 production of FL-derived cells after CpG-ODN (CD8^+/TCR^− FC [3]; [9]): increased further
TNF-α production of FL-derived cells after CpG-ODN (CD8^+/TCR^− FC [3]; [9]): increased further
GM-CSF production by FC (CD8^+/TCR^− FC [3]; [10]): no
IFN-γ production by FC (CD8^+/TCR^− FC [3]; [10]): low amounts
IL9 production by FC (CD8^+/TCR^− FC [3]; [10]): low amounts
IL-1β production by FC (CD8^+/TCR^− FC [3]; [10]): no
IL-2 production by FC (CD8^+/TCR^− FC [3]; [10]): no
IL-4 production by FC (CD8^+/TCR^− FC [3]; [10]): no
IL-5 production by FC (CD8^+/TCR^− FC [3]; [10]): no
IL-10 production by FC (CD8^+/TCR^− FC [3]; [10]): low amounts
IL-13 production by FC (CD8^+/TCR^− FC [3]; [10]): no
MCP-1/CCL2 production by FC (CD8^+/TCR^− FC [3]; [10]): low amounts
IFN-α production by FC (CD8^+/TCR^− FC [3]; sorted bone marrow FC cultured with stimulus, ELISA): levels similar to those produced by p-preDC
CD80 expression on FL-derived FC after CpG ODN (CD8^+/TCR^− FC [4]; [11]): 48%
CD86 expression on FL-derived FC after CpG ODN (CD8^+/TCR^− FC [4]; [11]): 77%
Class II expression on FL-derived FC after CpG ODN (CD8^+/TCR^− FC [4]; [11]): 73%
CD80 expression on FC (CD8^+/TCR^− FC [4]; [12]): 23.5±8%
CD86 expression on FC (CD8^+/TCR^− FC [4]; [12]): 86±12%
Class II expression on FC (CD8^+/TCR^− FC [4]; [12]): 74±6.5%
decrease of mortality of FL-treated FC (CD8^+/TCR^− FC [5]; FL-derived FC, CpG ODN overnight versus medium): 10-15%
decrease of FC mortality compared to media alone (CD8^+/TCR^− FC [5]; [13]): 10%
mortality of FC (dead cells) (CD8^+/TCR^− FC [5]; [13]): 43.5±3.5%
